Data as given in US4368267A, “Epoxidation of lower α-olefins” (priority 1980, dated 1983).
Structures can show the parent of a compound that is named as a salt.

What was measured:
[1] = system: P(40), P(80), S(80) cell fractions of Methylosinus sp. (CRL-15, NRRL B-11,202); assay: Oxidation of n-alkanes and n-alkenes by cell fractions; type: biochemical; conditions: for Methane-Oxidizing Activity in presence of metal / Propylene-Oxidizing Activity in presence of metal / % Inhibition, Propylene-Epoxidizing Activity / % Inhibition, Methane-Hydroxylating Activity: P(40) fraction; for Methane-Oxidizing Activity in presence of metal / Propylene-Oxidizing Activity in presence of metal: metal 10^-3 M; for Methane-Oxidizing Activity in presence of metal: control 4.0; for Propylene-Oxidizing Activity in presence of metal: control […]; for % Inhibition, Propylene-Epoxidizing Activity / % Inhibition, Methane-Hydroxylating Activity: inhibitor 10^-3 M; for % Inhibition, Propylene-Epoxidizing Activity: uninhibited rate 4.1; for % Inhibition, Methane-Hydroxylating Activity: uninhibited rate 4.5
Protocol: Cells were washed twice with 25 mM potassium phosphate buffer, pH 7.0 containing 5 mM MgCl2. Cells were suspended in the same buffer. The cell suspensions at 4° C. were disintegrated by a single passage through a French Pressure cell (15,000 lb./in.^2) and centrifuged at 5000×g. for 15 min. to remove unbroken bacteria. The supernatant solution (crude extract) was then centrifuged at 40,000×g. for 30 min., yielding particulate P(40) and soluble S(40) fractions. The S(40) fraction was subsequently centrifuged at 80,000×g. for 60 min., yielding particulate P(80) and soluble S(80) fractions. The particulate fractions [P(40) and P(80)] were suspended in 25 mM potassium phosphate buffer, pH 7.0, containing 5 mM MgCl2 and homogenized at 4° C.
[…] The reaction mixtures contained in 1.0 ml: 150 mM potassium phosphate buffer, pH 7.0 containing 5 mM MgCl2, 0.6 ml; […] NADH, and cellular fraction.
Reaction mixtures were contained in 10 ml vials at 4° C. Vials were sealed with rubber caps. The gaseous phase in the vials was removed using vacuum and then was replaced with a gas mixture of methane or propylene and oxygen at a 1:1, v/v ratio. Oxidation of other gaseous n-alkanes and n-alkenes was examined as described above. For liquid substrates, 10 μl of substrate was used directly.
The products of epoxidation of n-alkenes and hydroxylation of n-alkanes were assayed by flame ionization gas chromatography using a stainless steel column (12'×1/8") packed with 10% Carbowax 20 M on 80/100 Chromosorb W and Porapak Q column. The column temperature was maintained isothermally at 120° C. The carrier gas flow rate was 30 ml/min. of helium. The various products were identified by retention time comparisons and co-chromatography with authentic standards.
Specific activities were expressed as μ moles of products formed per hour per mg. protein. Concentrations of protein in various fractions were determined by the method of Lowry et al., J. Biol. Chem. 193: 265-275 (1951).

[2] = system: Methylosinus trichosporium OB3b (NRRL B-11,196); assay: Methane hydroxylation and alkene epoxidation by washed cell suspensions; type: cell-based; conditions: methane-grown washed cells, 30° C.
Protocol: (§1) The pH of the nutrient medium was adjusted to 7.0 by the addition of acid or base and 50 ml aliquots of the nutrient medium was charged into a plurality of 300 ml shake flasks. […] The isolates had been maintained on agar plates under an atmosphere of methane and air having a 1:1 v/v gas ratio which had been transferred every two weeks. The gaseous phase of the inoculated flasks was then replaced with a gas mixture comprised of methane and air having a ratio of 1:1 on a v/v basis. The inoculated flasks were sealed air tight and were incubated on a rotary shaker of orbital radius 2.5 cm at 250 rpm and at 30° C. for two days until the turbidity in the medium had developed.
(§2) The cells were harvested by centrifugation at 10,000 ×g at 4° C. for 30 minutes. The cell pellet was washed twice with a 0.15 M phosphate buffer at a pH of 7.0 (containing 0.002 M MgCl2). The washed cells were then suspended in a 0.15 M phosphate buffer at pH 7.0.
[…] The gaseous phase of the vials was removed with vacuum and then was replaced with a gas mixture of alkene and oxygen at a 1:1 v/v ratio. It was then incubated at 30° C. on a rotary shaker at 300 rpm. Samples of product (3 μl) were withdrawn periodically with a microsyringe and the products were analyzed by gas chromatography (ionization flame detector column).

[3] = system: Methylosinus sporium 5 (NRRL B-11,197); assay: as above; type: cell-based; conditions: methane-grown washed cells, 30° C.
Protocol: as §1, §2
(§3) A 0.5 ml aliquot of each washed cell suspension (2 mg cells) was put into 10 ml vials at 4° C. which were sealed with a rubber cap. […] It was then incubated at 30° C. on a rotary shaker at 300 rpm. Samples of product (3 μl) were withdrawn periodically with a microsyringe and the products were analyzed by gas chromatography (ionization flame detector column).

[4] = system: Methylococcus capsulatus (CRL M1, NRRL B-11,219); assay: Oxidation/epoxidation by washed cell suspensions; type: cell-based; conditions: methane-grown washed cells
[5] = system: Methylobacterium organophilum (CRL 26, NRRL B-11,222); assay: Epoxidation/hydroxylation by washed cell suspensions; type: cell-based; conditions: Propylene + 5 mM stimulator compound
Protocol: (§4) The pH of the nutrient medium was adjusted to 7.0 by the addition of acid or base and 50 ml aliquots of the nutrient medium was charged into a plurality of 300 ml shake flasks. The shake flasks were inoculated with an inoculating loop of cells from an agar plate containing homogeneous colonies of the microorganisms on the plate (the purity of the isolates were confirmed by microscopic examination). The isolates had been maintained on agar plates under an atmosphere of methane and air having a 1:1 v/v gas ratio which had been transferred every two weeks. The gaseous phase of the inoculated flasks was then replaced with a gas mixture comprised of methane and air having a ratio of 1:1 on a v/v basis. The inoculated flasks were sealed air tight and were incubated on a rotary shaker of orbital radius 2.5 cm at 250 rpm and at 30° C. for two days until the turbidity in the medium had developed.
as §2
(§5) A 0.5 ml aliquot of each washed cell suspension (2 mg cells) was put into 10 ml vials at 4° C. which were sealed with a rubber cap. The gaseous phase of the vials was removed with vacuum and then was replaced with a gas mixture of alkene and oxygen at a 1:1 v/v ratio. It was then incubated at 30° C. on a rotary shaker at 300 rpm. Samples of product (3 μl) were withdrawn periodically with a microsyringe and the products were analyzed by gas chromatography (ionization flame detector column).
(§6) Several experiments were carried out using a plurality of compounds capable of generating the necessary reducing power (NADH2 or NADPH2) required for the epoxidation of alkenes or dienes. These experiments were carried out using cell suspensions of methane grown methylotrophs using the procedure as described in Example 1 except that a stimulator compound was added to the reaction medium.

[6] = system: Methylococcus capsulatus strain MC; assay: Stimulation of propylene epoxidation in cell suspensions; type: cell-based; conditions: Propylene + 5 mM stimulator compound
Protocol: as §4, §2, §5, §6

[7] = system: Methylobacter capsulatus Y (NRRL B-11,201); assay: Methane hydroxylation and propylene epoxidation by washed cell suspensions; type: cell-based; conditions: Propylene + 5 mM stimulator compound
Protocol: as §4, §2, §3
Several experiments were carried out using a plurality of compounds capable of generating the necessary reducing power (NADH2 or NADPH2) required for the epoxidation of alkenes or dienes. […]

[Cl][Fe]([Cl])[Cl] [Ferric Chloride]
Methane-Oxidizing Activity in presence of metal [1]: 4.8 μmoles/hr/mg protein | Propylene-Oxidizing Activity in presence of metal [1]: 5.8 μmoles/hr/mg protein

C=CCCCC [Hexene-1]
Conversion rate, hexene-1 to 1,2-epoxyhexane [2]: 0 μmole/hr/mg protein | Conversion rate, hexene-1 to 1,2-epoxyhexane ([2]; listed as hexene-1): did not produce any detectable epoxide | Conversion rate, hexene-1 to 1,2-epoxyhexane [3]: 0 μmole/hr/mg protein | Conversion rate, hexene-1 to 1,2-epoxyhexane ([3]; listed as hexene-1): did not produce any detectable epoxide

CC(C)C [Isobutane]
Reaction Rate, isobutane to isobutyraldehyde [4]: 0.072 μmoles/hr/mg biomass | Reaction Rate, isobutane to tertiary butanol [4]: 0.051 μmoles/hr/mg biomass

C=CC(=C)C [Isoprene]
Reaction Rate, isoprene to 1,2-epoxyisoprene [4]: 0.064 μmoles/hr/mg biomass

CC(C)O [Isopropanol]
Rate of Product Formation (Propylene Oxide) [5]: 20 nmoles/hr/mg protein | Rate of Product Formation (Propylene Oxide) [6]: 37 nmoles/hr/mg protein | Rate of Product Formation (Propylene Oxide) [7]: 13 nmoles/hr/mg protein

COC(C)=O [Methyl Acetate]
Rate of Product Formation (Propylene Oxide) [5]: 5.0 nmoles/hr/mg protein | Rate of Product Formation (Propylene Oxide) [6]: 21 nmoles/hr/mg protein

COC=O [Methyl Formate]
Rate of Product Formation (Propylene Oxide) [5]: 61 nmoles/hr/mg protein | Rate of Product Formation (Propylene Oxide) [6]: 390 nmoles/hr/mg protein | Rate of Product Formation (Propylene Oxide) [7]: 99 nmoles/hr/mg protein

C=CCCC [Pentane-1, pentene-1]
Conversion rate, Pentane-1 to 1,2-epoxypentane [2]: 0 μmole/hr/mg protein | Conversion rate, pentene-1 to 1,2-epoxypentane [2]: did not produce any detectable epoxide | Rate of Product Formation (substrate to 1,2-epoxide or alcohol) ([1]; P(40) particulate fraction, 30° C.): 0 μmoles/hr/mg of protein | Conversion rate, Pentane-1 to 1,2-epoxypentane [3]: 0 μmole/hr/mg protein | Conversion rate, pentene-1 to 1,2-epoxypentane [3]: did not produce any detectable epoxide

CCCO [Propanol]
Rate of Product Formation (Propylene Oxide) [5]: 66 nmoles/hr/mg protein | Rate of Product Formation (Propylene Oxide) [6]: 243 nmoles/hr/mg protein

CCC=O [Propionaldehyde]
Rate of Product Formation (Propylene Oxide) [6]: 40 nmoles/hr/mg protein | Rate of Product Formation (Propylene Oxide) [7]: 54 nmoles/hr/mg protein

NNC(N)=S [Thiosemicarbazide, reference compound]
% Inhibition, Propylene-Epoxidizing Activity [1]: 97% | % Inhibition, Methane-Hydroxylating Activity [1]: 100%

NC(N)=S [Thiourea, reference compound]
% Inhibition, Propylene-Epoxidizing Activity [1]: 98% | % Inhibition, Methane-Hydroxylating Activity [1]: 98%

c1ccc(-c2ccccn2)nc1 [α,α-Bipyridyl, reference compound]
% Inhibition, Propylene-Epoxidizing Activity [1]: 98% | % Inhibition, Methane-Hydroxylating Activity [1]: 99%

Ferrous Sulfate
Methane-Oxidizing Activity in presence of metal [1]: 4.8 μmoles/hr/mg protein | Propylene-Oxidizing Activity in presence of metal [1]: 5.9 μmoles/hr/mg protein
